Common to all, as to assay: Kinase panel (Eurofins)
Assay type in all cases: biochemical
What all share (conditions): n = 2; for inhibition at 1 µM: at 1 μmol/L; for IC50: read-out: IC50 kinase inhibition

One experiment deals with T1, BRK(h) (Homo sapiens, UniProt Q13882).
T1 construct: purchased Eurofins
The source says: (§1) These receptors have a methionine gatekeeper in their kinase domains, and are related to hyperglycemia in other clinical trials of EGFR TKI, such as Co-1686.

The target in another experiment is T2, ACK1(h) (Homo sapiens, UniProt Q07912).
T2 construct: purchased Eurofins
Description: as §1

For a further experiment, the target named is T3, ErbB4(h) (Homo sapiens, UniProt Q15303).
T3 construct: purchased Eurofins
T3 sequence (Q15303 26-1308): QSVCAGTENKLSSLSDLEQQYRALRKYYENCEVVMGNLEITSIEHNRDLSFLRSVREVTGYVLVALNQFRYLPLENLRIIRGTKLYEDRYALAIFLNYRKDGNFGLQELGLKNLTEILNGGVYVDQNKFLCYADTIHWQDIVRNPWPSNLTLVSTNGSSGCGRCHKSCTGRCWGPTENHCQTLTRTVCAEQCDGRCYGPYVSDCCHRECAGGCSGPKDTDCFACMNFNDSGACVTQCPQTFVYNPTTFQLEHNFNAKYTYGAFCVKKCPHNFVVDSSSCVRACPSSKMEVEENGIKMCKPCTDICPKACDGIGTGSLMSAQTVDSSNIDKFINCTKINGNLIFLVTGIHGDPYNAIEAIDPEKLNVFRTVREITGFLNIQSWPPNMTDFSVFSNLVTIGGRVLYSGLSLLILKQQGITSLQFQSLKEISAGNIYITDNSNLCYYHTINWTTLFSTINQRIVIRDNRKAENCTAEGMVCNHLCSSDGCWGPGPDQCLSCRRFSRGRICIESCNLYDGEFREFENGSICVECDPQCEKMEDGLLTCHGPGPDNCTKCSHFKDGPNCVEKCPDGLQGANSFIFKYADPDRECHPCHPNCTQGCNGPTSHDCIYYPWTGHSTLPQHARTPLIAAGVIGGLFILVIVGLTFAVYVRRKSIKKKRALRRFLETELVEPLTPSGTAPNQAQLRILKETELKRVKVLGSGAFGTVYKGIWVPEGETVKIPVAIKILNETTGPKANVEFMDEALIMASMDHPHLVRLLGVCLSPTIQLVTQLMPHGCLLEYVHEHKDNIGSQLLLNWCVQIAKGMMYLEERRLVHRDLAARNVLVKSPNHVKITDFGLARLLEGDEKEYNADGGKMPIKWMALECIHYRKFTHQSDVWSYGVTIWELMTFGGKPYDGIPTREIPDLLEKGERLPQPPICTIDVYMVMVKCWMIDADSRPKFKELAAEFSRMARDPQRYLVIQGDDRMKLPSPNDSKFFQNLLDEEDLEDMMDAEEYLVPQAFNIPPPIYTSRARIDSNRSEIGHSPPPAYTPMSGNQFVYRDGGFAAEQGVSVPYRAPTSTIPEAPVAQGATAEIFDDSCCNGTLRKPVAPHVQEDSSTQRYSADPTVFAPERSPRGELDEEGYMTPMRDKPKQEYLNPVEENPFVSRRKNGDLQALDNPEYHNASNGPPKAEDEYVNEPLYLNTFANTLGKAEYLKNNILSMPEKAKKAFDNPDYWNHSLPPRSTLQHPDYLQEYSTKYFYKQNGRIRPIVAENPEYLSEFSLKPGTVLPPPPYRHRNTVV
Description: as §1

Another experiment deals with T4, LTK(h) (Homo sapiens, UniProt P29376).
T4 construct: purchased Eurofins
Description: as §1

The target of a further experiment is T5, Tec(h) activated (Homo sapiens, UniProt P42680).
T5 construct: purchased Eurofins
T5 sequence (P42680 1-631): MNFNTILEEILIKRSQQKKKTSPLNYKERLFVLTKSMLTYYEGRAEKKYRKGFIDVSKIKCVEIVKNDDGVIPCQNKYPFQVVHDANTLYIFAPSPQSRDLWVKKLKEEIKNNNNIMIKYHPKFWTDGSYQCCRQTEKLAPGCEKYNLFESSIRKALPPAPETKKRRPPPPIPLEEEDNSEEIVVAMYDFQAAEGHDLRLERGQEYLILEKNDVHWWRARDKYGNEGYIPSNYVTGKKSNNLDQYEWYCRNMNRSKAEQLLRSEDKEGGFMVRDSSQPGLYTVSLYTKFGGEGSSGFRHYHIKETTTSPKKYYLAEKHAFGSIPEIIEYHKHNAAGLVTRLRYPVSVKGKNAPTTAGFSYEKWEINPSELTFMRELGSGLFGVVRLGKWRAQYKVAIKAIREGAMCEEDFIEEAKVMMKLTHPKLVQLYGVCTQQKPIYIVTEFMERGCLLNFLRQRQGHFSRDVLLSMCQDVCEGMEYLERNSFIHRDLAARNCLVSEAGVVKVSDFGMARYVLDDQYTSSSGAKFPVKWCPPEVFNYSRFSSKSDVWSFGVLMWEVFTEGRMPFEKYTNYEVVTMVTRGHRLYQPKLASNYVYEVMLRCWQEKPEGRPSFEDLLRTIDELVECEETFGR
Description: as §1

The target in a further experiment is T6, Itk(h) (Homo sapiens, UniProt Q08881).
T6 construct: purchased Eurofins
T6 sequence (Q08881 1-620): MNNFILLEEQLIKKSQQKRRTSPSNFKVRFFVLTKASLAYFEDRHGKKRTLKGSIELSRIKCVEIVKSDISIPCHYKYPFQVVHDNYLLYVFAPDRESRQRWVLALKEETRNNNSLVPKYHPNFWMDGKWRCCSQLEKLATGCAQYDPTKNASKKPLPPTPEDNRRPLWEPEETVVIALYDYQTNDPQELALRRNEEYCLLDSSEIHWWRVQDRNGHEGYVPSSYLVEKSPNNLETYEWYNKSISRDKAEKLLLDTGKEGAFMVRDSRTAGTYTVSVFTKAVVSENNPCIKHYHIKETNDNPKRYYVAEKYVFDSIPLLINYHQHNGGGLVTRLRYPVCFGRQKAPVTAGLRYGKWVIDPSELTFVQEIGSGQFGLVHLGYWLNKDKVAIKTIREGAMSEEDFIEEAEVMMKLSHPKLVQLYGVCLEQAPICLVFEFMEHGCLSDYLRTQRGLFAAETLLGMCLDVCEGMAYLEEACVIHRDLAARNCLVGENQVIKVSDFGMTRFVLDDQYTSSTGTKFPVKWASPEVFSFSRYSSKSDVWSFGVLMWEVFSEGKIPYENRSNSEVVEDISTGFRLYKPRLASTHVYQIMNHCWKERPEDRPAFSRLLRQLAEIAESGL
Description: as §1

The target of a further experiment is T7, JAK3(h) (Homo sapiens, UniProt P52333).
T7 construct: purchased Eurofins
T7 sequence (P52333 1-1124): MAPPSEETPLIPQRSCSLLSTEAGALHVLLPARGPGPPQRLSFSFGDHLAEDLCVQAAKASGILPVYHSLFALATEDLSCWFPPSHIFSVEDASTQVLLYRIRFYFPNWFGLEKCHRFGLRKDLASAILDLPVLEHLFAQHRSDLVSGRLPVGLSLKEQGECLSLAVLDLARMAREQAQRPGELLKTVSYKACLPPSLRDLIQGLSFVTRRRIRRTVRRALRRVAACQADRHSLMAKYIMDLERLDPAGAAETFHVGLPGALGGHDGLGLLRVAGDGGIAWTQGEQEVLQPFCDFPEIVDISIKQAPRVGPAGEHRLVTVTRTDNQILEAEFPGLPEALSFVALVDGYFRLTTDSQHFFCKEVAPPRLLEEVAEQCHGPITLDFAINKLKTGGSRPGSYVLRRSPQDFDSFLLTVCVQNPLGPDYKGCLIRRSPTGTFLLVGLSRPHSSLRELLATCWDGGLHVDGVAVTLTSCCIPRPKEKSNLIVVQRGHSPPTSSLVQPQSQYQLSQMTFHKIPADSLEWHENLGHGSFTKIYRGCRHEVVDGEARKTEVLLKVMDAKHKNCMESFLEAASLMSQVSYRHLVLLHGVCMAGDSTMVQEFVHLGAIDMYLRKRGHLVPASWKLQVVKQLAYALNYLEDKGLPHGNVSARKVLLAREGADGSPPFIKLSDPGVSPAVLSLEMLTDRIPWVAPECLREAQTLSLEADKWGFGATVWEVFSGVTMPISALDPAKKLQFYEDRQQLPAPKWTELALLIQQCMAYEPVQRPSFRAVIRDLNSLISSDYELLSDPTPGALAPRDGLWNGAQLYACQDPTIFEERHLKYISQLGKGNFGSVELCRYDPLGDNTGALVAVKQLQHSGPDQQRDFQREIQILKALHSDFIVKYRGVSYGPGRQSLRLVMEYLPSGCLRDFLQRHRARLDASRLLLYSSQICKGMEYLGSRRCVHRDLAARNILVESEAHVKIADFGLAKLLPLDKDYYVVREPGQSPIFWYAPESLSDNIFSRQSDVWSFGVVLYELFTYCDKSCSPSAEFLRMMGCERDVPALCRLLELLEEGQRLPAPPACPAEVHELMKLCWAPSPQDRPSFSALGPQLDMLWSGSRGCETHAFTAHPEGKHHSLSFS
Description: as §1

Another experiment concerns the target T8, IGF-1R(h), activated (Homo sapiens, UniProt P08069).
T8 construct: purchased Eurofins
Description: as §1

Another experiment has as its target T9, LRRK2(h) (Homo sapiens, UniProt Q5S007).
T9 construct: purchased Eurofins
Description: as §1

What is called inhibition is the change of the read-out against control, counted positive when it falls. The low end stands for a weak effect, the high end for a strong effect. A word on the IC50: it is the concentration at which inhibition is half-maximal.

T9 sequence (Q5S007 whole entry): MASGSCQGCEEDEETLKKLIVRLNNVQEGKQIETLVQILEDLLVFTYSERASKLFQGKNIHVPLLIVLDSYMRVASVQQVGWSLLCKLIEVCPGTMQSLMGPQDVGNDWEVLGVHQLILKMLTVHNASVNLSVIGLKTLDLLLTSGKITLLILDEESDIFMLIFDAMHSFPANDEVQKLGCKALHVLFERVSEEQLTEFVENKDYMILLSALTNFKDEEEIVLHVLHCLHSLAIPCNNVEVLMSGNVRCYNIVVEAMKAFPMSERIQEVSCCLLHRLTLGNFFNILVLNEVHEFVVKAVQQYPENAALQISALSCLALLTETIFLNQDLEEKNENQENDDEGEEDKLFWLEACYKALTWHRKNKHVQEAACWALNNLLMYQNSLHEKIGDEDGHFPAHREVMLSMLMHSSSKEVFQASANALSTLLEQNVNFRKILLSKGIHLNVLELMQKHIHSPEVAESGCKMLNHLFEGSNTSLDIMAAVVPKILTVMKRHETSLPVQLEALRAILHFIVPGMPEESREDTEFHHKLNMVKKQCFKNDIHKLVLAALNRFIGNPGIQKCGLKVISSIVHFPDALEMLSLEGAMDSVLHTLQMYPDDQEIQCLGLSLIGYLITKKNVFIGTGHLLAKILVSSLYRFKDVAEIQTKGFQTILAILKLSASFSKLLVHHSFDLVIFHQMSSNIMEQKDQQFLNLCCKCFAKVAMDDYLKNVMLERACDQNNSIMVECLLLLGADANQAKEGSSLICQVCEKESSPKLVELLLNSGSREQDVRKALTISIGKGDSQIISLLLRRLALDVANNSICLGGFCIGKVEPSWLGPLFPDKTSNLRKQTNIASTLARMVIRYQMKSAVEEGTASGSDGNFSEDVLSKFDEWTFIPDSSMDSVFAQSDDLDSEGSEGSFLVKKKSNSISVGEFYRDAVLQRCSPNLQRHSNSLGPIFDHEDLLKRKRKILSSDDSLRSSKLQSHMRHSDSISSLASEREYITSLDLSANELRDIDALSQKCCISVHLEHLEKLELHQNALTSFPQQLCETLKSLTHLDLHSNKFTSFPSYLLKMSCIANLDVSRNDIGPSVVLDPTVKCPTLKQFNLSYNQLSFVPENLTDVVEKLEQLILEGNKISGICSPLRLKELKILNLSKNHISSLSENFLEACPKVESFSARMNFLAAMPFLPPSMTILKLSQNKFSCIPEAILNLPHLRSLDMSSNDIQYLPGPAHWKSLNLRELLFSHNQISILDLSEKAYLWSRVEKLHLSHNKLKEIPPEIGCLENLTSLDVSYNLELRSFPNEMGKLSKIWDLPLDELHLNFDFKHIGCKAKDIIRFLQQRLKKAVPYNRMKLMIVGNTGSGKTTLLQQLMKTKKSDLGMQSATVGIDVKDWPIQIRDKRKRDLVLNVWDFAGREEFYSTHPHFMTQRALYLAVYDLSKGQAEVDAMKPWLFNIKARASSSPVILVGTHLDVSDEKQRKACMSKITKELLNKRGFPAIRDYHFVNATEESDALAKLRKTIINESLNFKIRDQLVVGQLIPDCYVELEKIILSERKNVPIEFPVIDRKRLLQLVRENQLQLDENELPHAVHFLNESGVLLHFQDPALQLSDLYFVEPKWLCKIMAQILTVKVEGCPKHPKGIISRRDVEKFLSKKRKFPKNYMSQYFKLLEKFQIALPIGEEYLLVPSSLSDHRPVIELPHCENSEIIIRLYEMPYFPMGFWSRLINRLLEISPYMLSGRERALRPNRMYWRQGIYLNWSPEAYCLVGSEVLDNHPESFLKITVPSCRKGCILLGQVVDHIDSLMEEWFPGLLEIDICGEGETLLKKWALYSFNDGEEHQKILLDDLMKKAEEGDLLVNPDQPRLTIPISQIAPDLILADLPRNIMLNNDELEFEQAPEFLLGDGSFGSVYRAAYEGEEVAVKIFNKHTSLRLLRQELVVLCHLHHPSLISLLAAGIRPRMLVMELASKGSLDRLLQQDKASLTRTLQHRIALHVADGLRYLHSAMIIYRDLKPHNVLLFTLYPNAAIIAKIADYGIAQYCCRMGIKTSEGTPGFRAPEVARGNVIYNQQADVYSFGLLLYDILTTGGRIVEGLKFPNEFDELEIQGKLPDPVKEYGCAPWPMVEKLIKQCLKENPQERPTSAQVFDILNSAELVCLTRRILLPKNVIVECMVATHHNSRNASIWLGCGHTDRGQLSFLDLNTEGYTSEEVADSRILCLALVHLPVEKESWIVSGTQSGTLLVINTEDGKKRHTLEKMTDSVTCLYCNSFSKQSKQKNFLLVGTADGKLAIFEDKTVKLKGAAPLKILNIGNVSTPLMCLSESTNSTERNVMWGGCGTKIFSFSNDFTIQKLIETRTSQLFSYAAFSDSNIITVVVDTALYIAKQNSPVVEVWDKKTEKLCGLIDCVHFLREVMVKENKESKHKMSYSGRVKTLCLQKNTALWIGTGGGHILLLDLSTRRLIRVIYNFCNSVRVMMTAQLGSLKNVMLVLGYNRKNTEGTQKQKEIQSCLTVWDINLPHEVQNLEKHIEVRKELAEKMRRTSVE
T8 sequence (P08069 31-1367): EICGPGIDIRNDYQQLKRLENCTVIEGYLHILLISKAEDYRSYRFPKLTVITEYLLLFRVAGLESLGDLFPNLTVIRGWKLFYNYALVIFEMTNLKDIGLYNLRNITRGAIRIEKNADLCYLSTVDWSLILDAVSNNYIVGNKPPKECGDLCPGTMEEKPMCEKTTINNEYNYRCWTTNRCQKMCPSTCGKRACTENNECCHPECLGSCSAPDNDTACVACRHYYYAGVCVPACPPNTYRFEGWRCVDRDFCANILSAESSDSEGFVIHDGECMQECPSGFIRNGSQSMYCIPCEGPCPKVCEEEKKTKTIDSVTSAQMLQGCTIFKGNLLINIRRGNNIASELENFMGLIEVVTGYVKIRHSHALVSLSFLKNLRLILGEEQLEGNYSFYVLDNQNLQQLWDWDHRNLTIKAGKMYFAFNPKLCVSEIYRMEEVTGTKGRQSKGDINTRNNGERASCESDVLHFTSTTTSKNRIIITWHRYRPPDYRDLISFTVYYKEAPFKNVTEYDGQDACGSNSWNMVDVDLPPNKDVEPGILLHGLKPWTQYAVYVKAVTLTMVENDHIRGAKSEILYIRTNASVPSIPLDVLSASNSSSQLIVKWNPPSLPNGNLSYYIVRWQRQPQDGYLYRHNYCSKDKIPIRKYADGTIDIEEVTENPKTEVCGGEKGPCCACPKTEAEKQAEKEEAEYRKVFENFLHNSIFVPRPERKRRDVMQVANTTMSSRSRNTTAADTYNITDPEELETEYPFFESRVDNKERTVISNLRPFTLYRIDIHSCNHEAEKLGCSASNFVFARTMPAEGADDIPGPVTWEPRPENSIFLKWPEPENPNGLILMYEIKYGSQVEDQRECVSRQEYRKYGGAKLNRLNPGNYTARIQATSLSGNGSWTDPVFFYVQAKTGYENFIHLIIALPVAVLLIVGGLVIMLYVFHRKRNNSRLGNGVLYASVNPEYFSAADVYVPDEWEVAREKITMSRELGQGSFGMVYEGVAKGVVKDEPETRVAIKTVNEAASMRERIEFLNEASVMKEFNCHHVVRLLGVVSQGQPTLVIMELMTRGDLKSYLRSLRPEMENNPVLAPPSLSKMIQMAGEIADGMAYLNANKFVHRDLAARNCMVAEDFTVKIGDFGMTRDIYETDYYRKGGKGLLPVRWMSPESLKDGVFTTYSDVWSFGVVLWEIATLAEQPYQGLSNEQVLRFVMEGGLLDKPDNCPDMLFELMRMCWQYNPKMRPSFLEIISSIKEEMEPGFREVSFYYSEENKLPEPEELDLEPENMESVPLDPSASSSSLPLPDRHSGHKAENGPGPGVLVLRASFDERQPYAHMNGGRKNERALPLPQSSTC

`C=CC(=O)Nc1cc(Nc2nccc(-c3c4n(c5ccccc35)CCCC4)n2)c(OC)cc1N(C)CCN(C)C` [SH-1028]: the inhibition at 1 µM amounted to 85% against BRK(h); 81% against ACK1(h); 90% at ErbB4(h); 83% against LTK(h); 80% against Tec(h) activated; 66% against Itk(h). Moreover, the inhibition at 1 µM is 61% against JAK3(h); 46% at IGF-1R(h), activated; 89% on LRRK2(h). Further, the IC50 was 0.062 µM on BRK(h); 0.086 µM at ACK1(h); 0.046 µM at ErbB4(h); 0.081 µM at LTK(h); 0.15 µM at Tec(h) activated; 0.32 µM at Itk(h). Besides, the IC50 at JAK3(h) amounted to 1.75 µM; at IGF-1R(h), activated, 0.499 µM; at LRRK2(h), 0.082 µM.
As to `C=CC(=O)Nc1cc(Nc2nccc(-c3c4n(c5ccccc35)CCCC4)n2)c(OC)cc1N(C)CCNC` [Imp3], the inhibition at 1 µM at BRK(h) was 91%; at ACK1(h) it was 90%; against ErbB4(h), 92%; on LTK(h), 93%; at Tec(h) activated, 77%; against Itk(h) it was 68%. Moreover, the inhibition at 1 µM on JAK3(h) is 55%; against IGF-1R(h), activated, 64%; on LRRK2(h), 93%. Further, the IC50 at BRK(h) turned out to be 0.08 µM; on ACK1(h), 0.124 µM; at ErbB4(h), 0.084 µM; on LTK(h), 0.061 µM; at Tec(h) activated, 0.272 µM; at Itk(h), 0.825 µM. Further, the half-inhibitory concentration (IC50) came to 1.37 µM on JAK3(h); 0.709 µM on IGF-1R(h), activated; 0.12 µM at LRRK2(h).

(Values after publication PMC8111447 (Frontiers in Pharmacology, 2021).)
